Laboratory results taken from patent publication US20250034186A1, “ANTIVIRAL COMPOUNDS” (priority 2020, published 2025).

Columns and labels:
[1] = NHBE in-vitro intracellular triphosphate formation; type: in vitro ADME, human; settings: 10 μM, up to 26 h, compared to compound 2 and/or 6 (FIG. 1)
Method: In-vitro intracellular triphosphate formation was measured for the compound of Formula I and compound 6 using the following protocol. Normal human bronchial airway epithelial cells (NHBEs) (0.25 million cells/well) were continuously incubated with 10 μM of compound for 26 hours. At select time points (2, 4, 6, and 26 h), the extracellular medium was removed from the well and the cells were washed twice with 2 mL of ice-cold 0.9% normal saline and extracted into 0.5 mL ice-cold 70% methanol containing 100 nM 2-chloro-adenosine-5′-triphosphate (Sigma-Aldrich, St. Louis, MO) as an internal standard. Samples were stored overnight at −20° C. to facilitate nucleotide extraction, centrifuged at 15,000×g for 15 minutes and then supernatant was transferred to clean tubes for drying in a MiVac Duo concentrator (Genevac, Gardiner, NY). Dried samples were then reconstituted in mobile phase A containing 3 mM ammonium formate (pH 5.0) with 10 mM dimethylhexylamine (DMHA) in water for analysis by LC-MS/MS.

[2] = PBMC in-vitro intracellular triphosphate formation assay; type: in vitro ADME; settings: 2 μM, 2 hours incubation, compared to compound 2 and/or 6 (FIG. 2)
Method: In-vitro intracellular triphosphate formation was measured for the compound of Formula I and compounds 2 and 6 using the following protocol. Freshly-isolated PBMC's were derived from a healthy donor and were suspended to a concentration of 5 million cells/mL in culture medium ([…] containing L-glutamine) prior to the start of the experiment. 10 mL aliquots of PBMCs were transferred to 50 mL conical tubes with loosened caps and compounds were added to a final concentration of 2 μM. 1 mL aliquots were then transferred to the wells of a 24-well plate per sample. The PBMC-compound mixtures were incubated for 2 hours at 37° c./5% CO2 under gentle agitation. Following incubation, PBMCs were spun at 5000 RPM for 3 min and supernatants were aspirated without disturbing the cell pellet. For samples undergoing immediate analysis, samples were resuspended in pre-cooled 1× Tris-buffered saline and were transferred to 1.5 mL conical tubes containing 0.5 mL of nyosil M25. Samples/Oil aliquots were then spun for 1 min at 13,000 RPM. Following centrifugation, all media was aspirated from the tubes without disturbing the oil layer. Water was added on top of the oil layer and the spinning/aspiration process was repeated followed by an additional water wash. […]

HRVc25 replicon = experiment: HRVc25 HeLa replicon EC50; type: cell-based; settings: Human rhinovirus sp., HRV25, H1-HeLa, 48 h, read-out: HRV25 Rep EC50
Method: First, HRV replicon RNA is prepared. 5 μg of DNA Template (HRVc15 or HRVc25) is linearized with 2 μL of MluI enzyme in NEB buffer-3 in a final volume of 25 μL for 3 hours at 37° C. Following incubation, linearized DNA is purified on a PCR purification column and the following in vitro transcription is performed using the following conditions: 10 μL of RiboMAX Express T7 2× buffer, 1-8 μL of linear DNA template (1 μg), 0-7 μL nuclease free water, 2 μL enzyme mix T7 express. The final volume of 20 μL is mixed and incubated at 37° C. for 30 min. Following incubation, 1 μL of RQ1 RNase free DNase is added and the mixture is incubated at 37° C. for 15 min. The resulting RNA is then purified with the MegaClear Kit (Gibco Life Technologies Cat #11835-030) and is eluted two times with 50 μL of elution buffer at 95° C. […] Replicon activity is then measured by a Renilla-Glo Luciferase Assay system. Prior to signal quantification, plates are removed from incubators and are allowed to equilibrate to 25° C. after 50 uL is removed from each well. […] Plates are then incubated for 20 min at 25° C. under gentle agitation and luciferase signal are determined with a 0.1 second detection setting using an EnVision luciferase quantification reader.

C[C@H](N[P@](=O)(OC[C@@]1(C#N)O[C@@H](c2ccc3c(N)ncnn23)[C@H](O)[C@@H]1O)Oc1ccccc1)C(=O)OC1CCCCC1 [Formula I, cyclohexyl ((S)-(((2R,3S,4R,5S)-5-(4-aminopyrrolo[2,1-f][1,2,4]triazin-7-yl)-2-cyano-3,4-dihydroxytetrahydrofuran-2-yl)methoxy)(phenoxy)phosphoryl)-L-alaninate]
in-vitro intracellular NTP formation in NHBEs [1]: equal to or better | in-vitro intracellular NTP formation in PBMCs [2]: lower | EC50 (HRVc25 replicon): 7 nM
